This is an account of results in patent publication US8653087B2, “Pyrido [5, 4-D] pyrimidines as cell proliferation inhibitors” (Boehringer Ingelheim International GmbH, priority 2008, dated 2014).

SMILES strings stand for the structures. Where two headings read alike, the source gives them in different places.

The IC50 is the midpoint of a concentration-inhibition curve. Lower therefore signals greater potency in that assay.

This assay has as its target B-Raf (V600E)-kinase (Homo sapiens (Human), UniProt P15056, V600E). The assay can be described thus: Kinase test B-RAF (V600E). The format is biochemical. In short, it runs like this: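 Read-out is DELFIA europium TRF of phospho-MEK (Ser217/221) on biotinylated MEK1 bound to streptavidin plates, IC50 from dose-response. Reaction ran 60 min at RT with 250 μM ATP, after a 24 h RT preincubation of compound with B-Raf (V600E) kinase, 5% DMSO final.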

Setting [1] is: B-RAF (V600E) kinase test, 250 μM ATP.

Chain of B-Raf (V600E)-kinase (P15056 whole entry V600E): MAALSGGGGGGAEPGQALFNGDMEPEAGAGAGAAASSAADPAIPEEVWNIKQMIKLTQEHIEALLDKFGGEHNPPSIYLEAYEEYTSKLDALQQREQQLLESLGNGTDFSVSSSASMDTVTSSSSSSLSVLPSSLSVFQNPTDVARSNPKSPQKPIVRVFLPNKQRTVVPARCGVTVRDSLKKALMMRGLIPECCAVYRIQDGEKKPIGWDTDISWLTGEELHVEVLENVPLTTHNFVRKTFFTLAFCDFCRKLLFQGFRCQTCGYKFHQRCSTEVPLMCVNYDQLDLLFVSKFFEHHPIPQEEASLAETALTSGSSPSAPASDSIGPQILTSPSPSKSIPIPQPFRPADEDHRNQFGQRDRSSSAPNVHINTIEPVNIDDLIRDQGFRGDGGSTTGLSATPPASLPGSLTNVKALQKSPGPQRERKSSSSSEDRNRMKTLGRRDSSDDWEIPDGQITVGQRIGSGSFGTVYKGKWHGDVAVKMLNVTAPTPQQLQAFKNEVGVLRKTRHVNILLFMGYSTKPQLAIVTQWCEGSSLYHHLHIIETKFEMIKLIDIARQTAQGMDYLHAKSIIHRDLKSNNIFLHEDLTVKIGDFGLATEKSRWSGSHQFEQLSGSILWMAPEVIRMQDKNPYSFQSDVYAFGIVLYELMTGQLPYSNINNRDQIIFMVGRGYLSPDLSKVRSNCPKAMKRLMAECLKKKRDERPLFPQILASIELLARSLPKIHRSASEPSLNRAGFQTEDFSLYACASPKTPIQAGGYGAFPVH

As for `Cc1ccc(C(=O)Nc2cc(C(C)(C)C)on2)cc1Nc1ncnc2cnc(N3CCC(N4C[C@@H](C)O[C@@H](C)C4)CC3)nc12` [III-488], the IC50 under setting [1] turned out to be 6 nM.

Under setting [1], `Cc1ccc(C(=O)NC2CCCCC2)cc1Nc1ncnc2cnc(N3CC[C@@H](F)C3)nc12` [III-208] had a concentration for half-maximal inhibition (IC50) greater than 2000 nM.

The molecule `COc1ccc(NC(=O)c2ccc(C)c(Nc3ncnc4cnc(NC5CC(N6CCN(C)CC6)C5)nc34)c2)cc1C(F)(F)F` (centres unmarked) [III-593] returned an IC50 under setting [1] of 1 nM.

Regarding `Cc1ccc(C(=O)Nc2cc(C(C)(C)C)on2)cc1Nc1ncnc2cnc(N3CCC(N4CCCCC4)CC3)nc12` [III-485], the IC50 under setting [1] is 3 nM.

For `Cc1ccc(C(=O)Nc2cc(C(F)(F)F)ccn2)cc1Nc1ncnc2cnc(N3CCOCC3)nc12` [III-321], the IC50 under setting [1] was less than 1 nM.

For `Cc1ccc(NC(=O)c2cc(N3CCN(C)CC3)cc(C(F)(F)F)c2)cc1Nc1ncnc2cnc(N(C)CCN(C)C)nc12` [IV-18], under setting [1], the IC50 turned out to be 9 nM.

`COc1ncc2ncnc(Nc3cc(C(=O)Nc4cc(C(C)(C)C)n[nH]4)ccc3C)c2n1` [III-575] gave an IC50 under setting [1] of 3 nM.

For `Cc1ccc(C(=O)Nc2cc(N3CCN(CC(C)C)CC3)cc(C(F)(F)F)c2)cc1Nc1ncnc2cnc(N3CC[C@H](F)C3)nc12` [III-455], 8 nM corresponded to half-maximal inhibition under setting [1] (IC50).

The molecule `CN1CCN(c2nc(N)c3ncnc(Nc4ccc(F)c(C(=O)Nc5cc(C(C)(C)C)n[nH]5)c4)c3n2)CC1` [I-82] displayed an IC50 under setting [1] of 676 nM.

`COCCN(C)c1ncc2ncnc(Nc3cc(C(=O)Nc4cc(C(C)(C)C)on4)ccc3OC)c2n1` [III-80] displayed an IC50 under setting [1] of 6 nM.

In turn, `CNc1ncnc2c(Nc3cc(NC(=O)c4cccc(C(C)(C)C#N)c4)ccc3C)ncnc12` [VIII-1] returned an IC50 under setting [1] of less than 1 nM.

Under setting [1], `CN(C)CCN(C)c1ncc2ncnc(Nc3cc(C(=O)Nc4cc(C(C)(C)C)on4)ccc3F)c2n1` [III-316] gave an IC50 of 3 nM.

In turn, `COc1ccc(NC(=O)c2ccc(C(F)(F)F)c(Nc3ncnc4cnc(N(C)CCN(C)C)nc34)c2)cc1C(F)(F)F` [III-43] had an IC50 under setting [1] of 972 nM.

Under setting [1], `Cc1ccc(C(=O)Nc2cccc(S(=O)(=O)N(C)C)c2)cc1Nc1ncnc2cnc(N3CCCC3)nc12` [III-274] gave an IC50 of 3 nM.

Regarding `Cc1ccc(C(=O)NC2CCCCC2)cc1Nc1ncnc2cnc(N(C)CCN(C)C)nc12` [III-201], the IC50 under setting [1] was greater than 10000 nM.

`Cc1ccc(C(=O)Nc2ccc(Cl)c(C(F)(F)F)c2)cc1Nc1ncnc2cnc(N3CCCN(C)CC3)nc12` [III-220] registered an IC50 under setting [1] of 5 nM.

As to `COCCN1CCN(c2ncc3ncnc(Nc4cc(C(=O)Nc5ccc(F)c(C(F)(F)F)c5)ccc4C)c3n2)CC1` [III-536], half-maximal inhibition under setting [1] (IC50) required 1 nM.

As for `COc1ccc(C(=O)Nc2cc(C(C)(C)C)on2)cc1Nc1ncnc2cnc(N(C)CCN3CCCC3)nc12` [III-97], the IC50 under setting [1] was determined as 4 nM.

For `COc1ccc(NC(=O)c2ccc(C)c(Nc3ncnc4cnc(N5C[C@@H](C)N[C@@H](C)C5)nc34)c2)cc1C(F)(F)F` [III-436], the IC50 under setting [1] stood at 2 nM.

Turning to `Cc1ccc(C(=O)Nc2nnc(C(F)(F)F)s2)cc1Nc1ncnc2cnc(N3CCNCC3)nc12` [III-342], under setting [1], inhibition was half-maximal at 2120 nM (IC50).

Consider `Cc1ccc(NC(=O)c2cc(C(C)(C)C)n[nH]2)cc1Nc1ncnc2cnc(N3CCN(C)CC3)nc12` [IV-4], for which the IC50 under setting [1] amounted to 44 nM.

`Cc1ccc(C(=O)Nc2cc(C(C)(C)C)n[nH]2)cc1Nc1ncnc2c(N)nc(N3CCCN(C)CC3)nc12` [I-14]: the IC50 under setting [1] was found to be 3 nM.

Under setting [1], `Cc1ccc(C(=O)Nc2cc(C(C)(C)C)on2)cc1Nc1ncnc2c(N)nc(N3CCCN(C)CC3)nc12` [I-11] had an IC50 of 1 nM.

For `Cc1ccc(C(=O)NCc2ccc(C(C)(C)C)cc2)cc1Nc1ncnc2cnc(N3CCCN(C)CC3)nc12` [III-218], under setting [1], the IC50 was determined as 293 nM.

As to `Cc1ccc(C(=O)Nc2ccc(C#N)c(C(F)(F)F)c2)cc1Nc1ncnc2cnc(N3CCN(C)CC3)nc12` [III-311], the midpoint of inhibition, the IC50, lay at 2 nM.

In turn, `Cc1ccc(NC(=O)c2cccc(C(F)(F)F)c2)cc1Nc1ncnc2c(N)nc(N3CCCNCC3)nc12` [II-11] yielded an IC50 under setting [1] of 20 nM.

With `Cc1ccc(C(=O)Nc2cc(C(C)(C)C)on2)cc1N(C)c1ncnc2cnc(N3CCOCC3)nc12` [III-580], the IC50 under setting [1] is 28 nM.

Regarding `Cc1ccc(C(=O)Nc2ccc(C#N)c(C(F)(F)F)c2)cc1Nc1ncnc2c(N)nc(N3CCN(C)CC3)nc12` [I-71], the IC50 under setting [1] is 7 nM.

The molecule `Cc1ccc(C(=O)Nc2cc(N3CCN(C(C)C)CC3)cc(C(F)(F)F)c2)cc1Nc1ncnc2cnc(N3CCOCC3)nc12` [III-461] gave an IC50 under setting [1] of 2 nM.

For the molecule `Cc1ccc(C(=O)NCC2CCOC2)cc1Nc1ncnc2cnc(N3CCOCC3)nc12` (centres unmarked) [III-193], the IC50 under setting [1] was greater than 15000 nM.

As for `CC(C)(C)c1cc(NC(=O)c2ccc(Cl)c(Nc3ncnc4cnc(N5CCCCCC5)nc34)c2)no1` [III-68], under setting [1], half-maximal inhibition (IC50) required 8 nM.

The molecule `Cc1ccc(C(=O)NCc2cccc(C(C)(C)C)c2)cc1Nc1ncnc2cnc(N3CCN(C)CC3)nc12` [III-310] came in with an IC50 under setting [1] of 50 nM.

Molecule `COCCN1CCN(c2ncc3ncnc(Nc4cc(C(=O)Nc5cc(C(C)(C)C)n[nH]5)ccc4C)c3n2)CC1` [III-425] gave an IC50 under setting [1] of 7 nM.

Under setting [1], `Cc1ccc(C(=O)Nc2cc(N(C)CCN(C)C)cc(C(F)(F)F)c2)cc1Nc1ncnc2cnc(N3CCOCC3)nc12` [III-442] returned an IC50 of 1 nM.

Under setting [1], `CC(C)(C)c1cc(NC(=O)c2ccc(F)c(Nc3ncnc4cnc(NCCN5CCOCC5)nc34)c2)no1` [III-92] displayed an IC50 of 1 nM.

Under setting [1], `COc1ccc(NC(=O)c2ccc(C)c(Nc3ncnc4cnc(-n5cnc(C)c5)nc34)c2)cc1C(F)(F)F` [III-549] registered an IC50 of 8 nM.

Take `COc1ccc(NC(=O)c2ccc(C)c(Nc3ncnc4c(N)nc(N5CCN(C)CC5)nc34)c2)cc1C(F)(F)F` [I-1]: the midpoint of inhibition under setting [1], the IC50, lay at 26 nM.

`CN1CCN(c2nc(N)c3ncnc(Nc4cc(C(=O)Nc5cccc(C(F)(F)F)c5)ccc4Br)c3n2)CC1` [I-26] came in with a concentration for half-maximal inhibition (IC50) under setting [1] of 70 nM.

Consider `Cc1ccc(NC(=O)c2cc(N3CCN(C)CC3)cc(C(F)(F)F)c2)cc1Nc1ncnc2cnc(N(C)CCCN(C)C)nc12` [IV-23], for which the half-inhibitory concentration (IC50) under setting [1] was 4 nM.

Under setting [1], `COc1ccc(NC(=O)c2ccc(Cl)c(Nc3ncnc4cnc(N(C)CCN5CCCC5)nc34)c2)cc1C(F)(F)F` [III-8] showed an IC50 of 3 nM.

Consider `Cc1ccc(C(=O)Nc2cc(C(C)(C)C)on2)cc1Nc1ncnc2cnc(N3CCN(CC4CCOC4)CC3)nc12` (centres unmarked) [III-482], for which, under setting [1], half-maximal inhibition (IC50) required 4 nM.

Under setting [1], `CN(C)C1CCN(c2ncc3ncnc(Nc4cc(C(=O)Nc5cc(C(C)(C)C)on5)ccc4F)c3n2)C1` (centres unmarked) [III-399] returned an IC50 of 2 nM.

The molecule `Cc1ccc(C(=O)Nc2cc(C(C)(C)C)on2)cc1Nc1ncnc2cnc(N3CCN(C4CCN(C)CC4)CC3)nc12` [III-486] displayed an IC50 under setting [1] of 4 nM.

Molecule `Cc1ccc(C(=O)NCc2cccc(C(F)(F)F)c2)cc1Nc1ncnc2cnc(N3CC[C@@H](F)C3)nc12` [III-207] displayed an IC50 under setting [1] of 11 nM.

Regarding `Cc1ccc(NC(=O)c2cccc(C(F)(F)F)c2)cc1Nc1ncnc2c(N)nc(N3CCCN(C4CC4)CC3)nc12` [II-10], 25 nM corresponded to half-maximal inhibition under setting [1] (IC50).

`Cc1ccc(C(=O)Nc2cccc(C(F)(F)F)c2)cc1Nc1ncnc2c(N)nc(N3CCCN(C)CC3)nc12` [I-68]: under setting [1], the IC50 is less than 1 nM.

`COCCN1CCN(c2ncc3ncnc(Nc4cc(C(=O)Nc5cc(C(C)(C)C)cc(NS(C)(=O)=O)c5OC)ccc4C)c3n2)CC1` [III-505] came in with an IC50 under setting [1] of 49 nM.

In the case of `Cc1ccc(NC(=O)c2cccc(C(C)(C)C#N)c2)cc1Nc1ncnc2cnc(N(C)CCCN(C)C)nc12` [IV-22], inhibition under setting [1] was half-maximal at 2 nM (IC50).

For the molecule `CN(C)C1CCN(c2ncc3ncnc(Nc4cc(Cl)cc(C(=O)Nc5cc(C(C)(C)C)nn5C)c4)c3n2)C1` (centres unmarked) [III-379], under setting [1], the IC50 was found to be 6 nM.

Take `Cc1ccc(C(=O)Nc2cc(N3CCN(C)CC3)c(F)c(C(F)(F)F)c2)cc1Nc1ncnc2cnc(NC3CCOC3)nc12` (centres unmarked) [III-506]: the half-maximal inhibitory concentration (IC50) under setting [1] turned out to be 4 nM.

Consider `Cc1ccc(C(=O)NCc2cccc(C(F)(F)F)c2)cc1Nc1ncnc2cnc(N3CCN(C)CC3)nc12` [III-188], for which the IC50 under setting [1] worked out at 104 nM.

The molecule `Cc1ccc(C(=O)Nc2cc(N(C)CCN(C)C)cc(C(F)(F)F)c2)cc1Nc1ncnc2c(N)nc(N3CCOCC3)nc12` [I-76] displayed an IC50 under setting [1] of 1 nM.

Under setting [1], `COc1ccc(C(=O)Nc2ccc(OC)c(C(F)(F)F)c2)cc1Nc1ncnc2cnc(N(C)C)nc12` [III-29] displayed an IC50 of 2 nM.

Under setting [1], `Cc1ccc(C(=O)Nc2ccc(Cl)c(C(F)(F)F)c2)cc1Nc1ncnc2cnc(N3CCOCC3)nc12` [III-337] showed an IC50 of 2 nM.

As for `Cc1ccc(C(=O)Nc2cc(C(C)(C)C)n[nH]2)cc1Nc1ncnc2cnc(N3CCN(CC(C)C)CC3)nc12` [III-447], the IC50 under setting [1] is 13 nM.

Under setting [1], `Cc1ccc(NC(=O)c2cccc(C(F)(F)F)c2)cc1Nc1ncnc2c(N)nc(N3CCCN(c4ccncc4)CC3)nc12` [II-12] showed an IC50 of 7 nM.

`Cc1ccc(C(=O)Nc2cccc(S(=O)(=O)N(C)C)c2)cc1Nc1ncnc2cnc(N3CCCCC3)nc12` [III-334] gave a half-inhibitory concentration (IC50) under setting [1] of 10 nM.

`Cc1ccc(C(=O)NC2CCCCC2)cc1Nc1ncnc2cnc(N3CCCN(C)CC3)nc12` [III-183]: the IC50 under setting [1] was greater than 15000 nM.

With `Cc1ccc(C(=O)NCc2ccc(C(C)(C)C)cc2)cc1Nc1ncnc2cnc(N3CC[C@@H](F)C3)nc12` [III-241], under setting [1], the concentration for half-maximal inhibition (IC50) amounted to 48 nM.

`Cc1ccc(C(=O)Nc2cccc(N(C)C)c2)cc1Nc1ncnc2cnc(N3CCCCC3)nc12` [III-247] had an IC50 under setting [1] of 1 nM.

For `CN1CCCN(c2nc(N)c3ncnc(Nc4cc(C(=O)Nc5cccc(C(F)(F)F)c5)ccc4Cl)c3n2)CC1` [I-24], the midpoint of inhibition under setting [1], the IC50, lay at 9 nM.

Under setting [1], `COc1ccc(NC(=O)c2ccc(C)c(Nc3ncnc4cnc(N5CCN(C6CCN(C)CC6)CC5)nc34)c2)cc1C(F)(F)F` [III-557] had an IC50 of 4 nM.

With `Cc1ccc(C(=O)Nc2cc(CN3CCCC3)cc(C(F)(F)F)c2)cc1Nc1ncnc2cnc(NCCF)nc12` [III-101], under setting [1], the IC50 amounted to 1 nM.

In turn, `Cc1ccc(C(=O)Nc2cccc(C(F)(F)F)c2)cc1Nc1ncnc2c(N)nc(N3CCCN(C4CC4)CC3)nc12` [I-58] had a half-inhibitory concentration (IC50) under setting [1] of 1 nM.

Turning to `Cc1ccc(NC(=O)c2cccc(C(F)(F)F)c2)cc1Nc1ncnc2c(N)nc(N3CCCN(C)CC3)nc12` [II-2], the IC50 under setting [1] came to 41 nM.
